In patent publication US7700584B2 (Hangzhou Minsheng Pharmaceuticals Co., Ltd., priority 2004, dated 2010):
≈ marks a conversion by molar mass, not a printed value. Read-outs that look alike come from different tables or passages of the source.

Key:
[1] = system: MCF-7 human mammary adenocarcinoma; test: In vitro inhibition rate to tumor cells (MTT), MCF-7; format: cell-based; conditions: for inhibition at 50 µg/mL: Homo sapiens
[2] = system: U-937 human histocytic lymphoma; test: In vitro anti-tumor IC50 (MTT), U-937; format: cell-based; conditions: Homo sapiens, U-937; Table 4; read-out: IC50 (ug/ml) against tumor cell lines, U-937
Description: (§1) (1) Single cell suspension was seeded into 96-well plates (the cells was diluted in the PRMI-1640 minimum medium to 3×10^4 cells/ml, […] diluted cells/well). […] The experiments were performed in quadruplicate.
(§2) (2) The medium was removed. Solutions of the anti-tumor agents (50 compounds) were prepared in a freshly prepared medium at serial concentrations. […] of the solution was added into each well. Incubation was continued for 48 hours.
(§3) (3) 20 ug of 2 mg/ml MTT was added into each well, and incubated for 4 hours.
(§4) (4) The medium was removed from the well. The microplates were swiftly turned down to throw-off the medium. […] of DMSO was added into each well, and vortexed at room temperature for 10 minutes.
(§5) (5) OD value (λ=570 nm) was measured with an Enzyme-Linked Detector.
(§6) (6) The graph of cell vitality was plotted, and IC50 was calculated.

[3] = system: LLC mouse Lewis lung carcinoma; test: In vitro inhibition rate to tumor cells (MTT), LLC; format: cell-based; conditions: 50 μg/ml
[4] = system: HL-60 human promyelocytic leukemia; test: In vitro anti-tumor IC50 (MTT), HL-60; format: cell-based; conditions: Homo sapiens, HL-60; Table 4; read-out: IC50 (ug/ml) against tumor cell lines, HL-60
Description: as §1, §2, §3, §4, §5, §6

[5] = system: U-937 human histocytic lymphoma; test: In vitro inhibition rate to tumor cells (MTT), U-937; format: cell-based; conditions: for inhibition at 50 µg/mL: Homo sapiens
[6] = system: Hela human cervical carcinoma; test: In vitro inhibition rate to tumor cells (MTT), Hela; format: cell-based; conditions: for inhibition at 50 µg/mL: Homo sapiens, HeLa
[7] = target: T1, HIV-1 proteinase (HIV-1 PR) (Human immunodeficiency virus type 1 group M subtype B, UniProt P04585); test: Screening for in vitro activity against HIV-1 proteinase; format: biochemical
T1 construct: HIV-1 proteinase digests the fluorescent-labeled substrate; purchased
Procedure, shortened: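 Recombinant HIV-1 PR cleaves a fluorescent-labeled substrate in reaction buffer. Samples were dissolved in DMSO and serially diluted 5-fold in water (five dilutions), then added before the enzyme. Fluorescence of the product was read after incubation; indinavir was the positive control.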

[8] = system: Bel-7402 human hepatic carcinoma; test: In vitro inhibition rate to tumor cells (MTT), Bel-7402; format: cell-based; conditions: for inhibition at 50 µg/mL: Homo sapiens
[9] = system: Hela human cervical carcinoma; test: In vitro anti-tumor IC50 (MTT), Hela; format: cell-based; conditions: Homo sapiens, HeLa; Table 4; read-out: IC50 (ug/ml) against tumor cell lines, Hela
[10] = target: T2, HIV-1 integrase (HIV-1 IN) (Human immunodeficiency virus type 1 group M subtype B, UniProt P04585); test: Screening for the activity against HIV-1 integrase; format: biochemical; conditions: initial concentration 100 μg/ml; read-out: IC50
T2 construct: a purified HIV-1 integrase was added into each well; purchased
Description: Principle of the test: A synthetic oligonucleotide of 30 nt was used as the donor substrate. A synthetic oligonucleotide of 20 nt was used as the target substrate. A 96-well plate was covered by the donor substrate, and a purified HIV-1 integrase was added into each well. ELISA was performed to measure the product of the target DNA chain transfer. A biotin-labeled alkali phosphatase was used to visual the system. OD value was measured by an Enzyme-linked Detector. Add a sample into the reaction system for screening the inhibitor of the enzyme.
1. HIV-1 IN: commercially available.
2. Treatment of the samples: Before use, the sample was dissolved in water or DMSO at a suitable concentration, then serially diluted (5×), four serial dilutions per sample. The stock solutions of two samples were 100-fold diluted with DMSO, then 5-fold diluted, four serial dilutions per sample. Positive control: S-y, provided by Shanghai Organic Chemistry Institute.
3. The donor substrate and target substrate: synthesized by Shanghai Biological Engineering Company (Shanghai Shenggong).
4. Methods: The diluted sample was added into a 96-well plate covered by the donor substrate, and then added into the reaction buffer containing the genetic engineered target enzyme and biotin-target substrate, incubated in the optimal reaction conditions. A biotin-labeled alkali phosphatase was used to visual the system to determine the absorbance at 450 nm (OD450).

[11] = system: SMMC-7721 human hepatic carcinoma; test: In vitro inhibition rate to tumor cells (MTT), SMMC-7721; format: cell-based; conditions: Homo sapiens
[12] = system: A-549 human lung adenocarcinoma; test: In vitro inhibition rate to tumor cells (MTT), A-549; format: cell-based; conditions: for inhibition at 50 µg/mL: Homo sapiens
293 cells = test: Cell status of 293 cells treated with sample alone (herpes virus screening); conditions: 200 μg/ml, 24 hrs
[13] = 50 μg/ml, Table 3 (repeated screening)
[14] = MCF7, 50 μg/ml, Table 2 (repeated screening), read-out: inhibition rate, Results (%) MCF-7
[15] = U-937, 50 μg/ml, Table 2 (repeated screening), read-out: inhibition rate, Results (%) U-937
[16] = 50 μg/ml, Table 2 (repeated screening), read-out: inhibition rate, Results (%) Hela
[17] = Bel-7402, 50 μg/ml, Table 2 (repeated screening), read-out: inhibition rate, Results (%) Bel-7402
[18] = SMMC-7721, 50 μg/ml, Table 2 (repeated screening), read-out: inhibition rate, Results (%) SMMC-7721
[19] = A549, 50 μg/ml, Table 2 (repeated screening), read-out: inhibition rate, Results (%) A-549

CC(C)C1CC23OC1(O)C/C(=C\Nc1ccc(O)cc1)C2CCC3C (centres unmarked) [Compound 5, Curcumol p-hydroxy aniline]
inhibition rate, Results (%) MCF-7 [1, 13]: 95.53%
inhibition at 50 µg/mL [1, 14]: 91%
inhibition at 50 µg/mL ([1]; MCF7, read-out: inhibition rate, Results (%) MCF-7, 50 μg/ml, Table 1): 90.3%
IC50 [2]: 0.42 µg/mL (≈ 1.22 µM)
inhibition rate, Results (%) LLC ([3]; Table 1): 3.21%
inhibition rate, Results (%) LLC ([3]; Table 3 (repeated screening)): 86.54%
inhibition at 50 µg/mL ([3]; Mus musculus, Lewis lung carcinoma, Table 2 (repeated screening)): 85.1%
IC50 [4]: 0.4 µg/mL (≈ 1.16 µM)
inhibition rate, Results (%) U-937 [5, 13]: 91.03%
inhibition at 50 µg/mL [5, 15]: 95.6%
inhibition at 50 µg/mL ([5]; U-937, read-out: inhibition rate, Results (%) U-937, 50 μg/ml, Table 1): 94%
inhibition rate, Results (%) Hela [6, 13]: 94.55%
inhibition at 50 µg/mL [6, 16]: 92.3%
inhibition at 50 µg/mL ([6]; read-out: inhibition rate, Results (%) Hela, 50 μg/ml, Table 1): 94.4%
Inhibition rate ([7]; 0.08 μg/ml): 4.38
Inhibition rate ([7]; 0.40 μg/ml): 9.00
Inhibition rate ([7]; 2.0 μg/ml): 10.30
inhibition at 10 µg/mL ([7]; 10 μg/ml, read-out: Inhibition rate): 11.2%
Inhibition rate ([7]; 50 μg/ml): 1.01
IC50 ([7]; five 5× serial dilutions from 50 μg/ml, read-out: IC50): > 146 µM
inhibition rate, Results (%) Bel-7402 [8, 13]: 78.97%
inhibition at 50 µg/mL [8, 17]: 81.5%
inhibition at 50 µg/mL ([8]; Bel-7402, read-out: inhibition rate, Results (%) Bel-7402, 50 μg/ml, Table 1): 80.2%
IC50 [9]: 0.32 µg/mL (≈ 0.932 µM)
inhibition at 100 µg/mL [10]: < 50%
inhibition at 50 µg/mL [11, 18]: 86.9%
inhibition at 50 µg/mL ([11]; SMMC-7721, read-out: inhibition rate, Results (%) SMMC-7721, 50 μg/ml, Table 1): 85%
inhibition rate, Results (%) A-549 [12, 13]: 91.23%
inhibition at 50 µg/mL [12, 19]: 90%
inhibition at 50 µg/mL ([12]; A549, read-out: inhibition rate, Results (%) A-549, 50 μg/ml, Table 1): 90.3%
Cytopathy and cell status, Sample (293 cells): Good

CC(C)C1CC23OC1(O)CC(=CN1CCNCC1)C2CCC3C (centres unmarked) [Compound 7, Curcumol piperazine]
inhibition at 50 µg/mL ([1]; MCF7, 50 μg/ml, Table 1, read-out: inhibition rate, Results (%) MCF-7): 88.3%
inhibition at 50 µg/mL [1, 14]: 85%
inhibition at 50 µg/mL ([1]; MCF7, 50 μg/ml, Table 3 (repeated screening), read-out: inhibition rate, Results (%) MCF-7): 84.1%
IC50 [2]: 0.76 µg/mL (≈ 2.37 µM)
inhibition rate, Results (%) LLC ([3]; Table 1): 85.42%
inhibition rate, Results (%) LLC ([3]; Table 2 (repeated screening)): −2.99%
inhibition rate, Results (%) LLC ([3]; Table 3 (repeated screening)): −3.66%
IC50 [4]: 1.61 µg/mL (≈ 5.02 µM)
inhibition at 50 µg/mL ([5]; U-937, 50 μg/ml, Table 1, read-out: inhibition rate, Results (%) U-937): 93%
inhibition at 50 µg/mL [5, 15]: 90%
inhibition at 50 µg/mL ([5]; U-937, 50 μg/ml, Table 3 (repeated screening), read-out: inhibition rate, Results (%) U-937): 91.2%
inhibition at 50 µg/mL ([6]; 50 μg/ml, Table 1, read-out: inhibition rate, Results (%) Hela): 90.4%
inhibition at 50 µg/mL [6, 16]: 89.3%
inhibition at 50 µg/mL ([6]; 50 μg/ml, Table 3 (repeated screening), read-out: inhibition rate, Results (%) Hela): 89.1%
inhibition at 0.08 µg/mL ([7]; 0.08 μg/ml, read-out: Inhibition rate): 14.1%
Inhibition rate ([7]; 0.40 μg/ml): 6.32
inhibition at 2 µg/mL ([7]; 2.0 μg/ml, read-out: Inhibition rate): 4.31%
Inhibition rate ([7]; 10 μg/ml): 3.51
IC50 ([7]; IC50, five 5× serial dilutions from 50 μg/ml): > 156 µM
inhibition at 50 µg/mL ([7]; read-out: Inhibition rate, 50 μg/ml): 1.43%
inhibition at 50 µg/mL ([8]; Bel-7402, 50 μg/ml, Table 1, read-out: inhibition rate, Results (%) Bel-7402): 55.4%
inhibition at 50 µg/mL [8, 17]: 60.2%
inhibition at 50 µg/mL ([8]; Bel-7402, 50 μg/ml, Table 3 (repeated screening), read-out: inhibition rate, Results (%) Bel-7402): 65.2%
IC50 [9]: 0.6 µg/mL (≈ 1.87 µM)
inhibition at 100 µg/mL [10]: < 50%
inhibition at 50 µg/mL ([11]; SMMC-7721, 50 μg/ml, Table 1, read-out: inhibition rate, Results (%) SMMC-7721): 3.34%
inhibition at 50 µg/mL [11, 18]: 1.23%
inhibition at 50 µg/mL ([12]; A549, 50 μg/ml, Table 1, read-out: inhibition rate, Results (%) A-549): 65.3%
inhibition at 50 µg/mL [12, 19]: 67.2%
inhibition at 50 µg/mL ([12]; A549, 50 μg/ml, Table 3 (repeated screening), read-out: inhibition rate, Results (%) A-549): 65.3%
Cytopathy and cell status, Sample (293 cells): Good
